Experimental data published in PMC8230474, “Synthesis of Novel Acyl Derivatives of 3-(4,5,6,7-Tetrabromo-1H-benzimidazol-1-yl)propan-1-ols—Intracellular TBBi-Based CK2 Inhibitors with Proapoptotic Properties” (International Journal of Molecular Sciences, 2021).
Like-named read-outs stand apart in the source and are kept apart here.

How the values were obtained:
[1] = design: method as in PMID 8876860, PMID 9760686; details: higher than the parent anti-herpesvirus agent; cited from earlier work
[2] = molecular target: human CK2 catalytic subunit (CK2α) (Homo sapiens, UniProt P68400); test: Radiometric (P81 filter isotopic) kinase assay, CK2 catalytic subunit; type: biochemical; details: read-out: Residual Activity of the Enzyme CK2α
Sequence of human CK2 catalytic subunit (CK2α) (P68400 whole entry): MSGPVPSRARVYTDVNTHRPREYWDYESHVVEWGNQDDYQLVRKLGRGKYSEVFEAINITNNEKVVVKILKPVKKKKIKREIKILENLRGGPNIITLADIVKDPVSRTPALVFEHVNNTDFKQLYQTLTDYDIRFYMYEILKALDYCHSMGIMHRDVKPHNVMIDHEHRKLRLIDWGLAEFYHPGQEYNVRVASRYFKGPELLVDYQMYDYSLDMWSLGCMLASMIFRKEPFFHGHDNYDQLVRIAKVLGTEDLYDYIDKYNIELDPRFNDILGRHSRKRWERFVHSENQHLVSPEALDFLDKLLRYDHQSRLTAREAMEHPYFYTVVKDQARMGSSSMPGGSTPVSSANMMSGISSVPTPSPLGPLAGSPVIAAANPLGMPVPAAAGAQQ

[3] = tested on: MCF-7 cells; test: Cell cycle progression by flow cytometry, MCF-7; type: cell-based, human; details: MCF-7, 72 h, compound at its EC50
[4] = tested on: MDA-MB-231 cells; test: MTT viability assay, MDA-MB-231; type: cell-based; details: Homo sapiens, read-out: EC50 ± SD MDA-MB-231
Experimental: (§1) To test the anti-cancer effect of the TBBi derivatives, we treated the MCF-7 and MDA-MB-231 cells with the newly synthesized esters and previously reported compounds [34, 57] at the concentration range of 3.125 to 200 µM for 24 h, 48 h and 72 h. Additionally, the range of concentrations was extended by additional lower concentrations in MCF-7 for compound 4 with the minimum concentration of 0.195 µM. […] The EC50 values, describing the half maximal effective concentration of each tested compound, were calculated and are summarized in Table 2. […] We observed that the EC50 values increase in both cell lines with the elongation of fatty acids chain length in the tested compounds, thus strongly correlating with the decrease of their solubility in biological media as characterized by logS parameter (Table 2). The second reason for the decreased biological activity of the longer-chain aliphatic esters might be attributed to their greater resistance toward intracellular hydrolysis, which directly influences the slower release of the active form of the corresponding CK2 inhibitors. […] However, none of the tested compounds, except for compound 5, decreased the viability of both cell lines in a time-dependent manner (Figure 4).
(§2) MCF-7 and MDA-MB-231 were cultured in high-glucose Dulbecco’s modified Eagle medium (DMEM, Lonza, Basel, Switzerland) supplemented with 10% fetal bovine serum (FBS, EuroClone, Siziano, Italy)), 2 mM L-glutamine, and antibiotics (100 U/mL penicillin, 100 µg/mL streptomycin) (Sigma-Aldrich Chemical Company (St. Louis, MO, USA). Cells were grown in 75-cm^2 cell culture flasks (Sarstedt, Nümbrecht, Germany) in a humidified atmosphere of CO2/air (5%/95%) at 37 °C. All the experiments were performed in exponentially growing cultures. Stock solutions of the test compounds were prepared in DMSO and stored in −80 °C for a maximum of one month. For the cytotoxicity studies, stock solutions of the tested compounds were diluted 200-fold with the proper culture medium to obtain the final concentrations.
(§3) After incubation with the tested compounds, an MTT test was performed as described previously. Optical densities were measured at 570 nm using BioTek microplate reader (Winooski, VT, USA). All measurements were carried out in a minimum of three biological replicates.

[5] = tested on: MDA-MB-231 cells; test: Cleaved PARP1 Western blot, MDA-MB-231; type: cell-based, human; details: MDA-MB-231, 24-h treatment, compound at its EC50, untreated cells = one relative unit
[6] = tested on: MCF-7 cells; test: MTT viability assay, MCF-7; type: cell-based; details: Homo sapiens, read-out: EC50 ± SD MCF-7
Experimental: as §1, §2, §3

[7] = tested on: protein kinase CK2 in MDA-MB-231 cells; test: Intracellular inhibition of CK2, Western blot of p-Ser529 p65 and p-Ser129 Akt1, MDA-MB-231; type: cell-based, human; details: MDA-MB-231, 24 h treatment, compound at its 72-h EC50, relative to untreated control
From the text: (§4) We observed an inhibition of CK2 in both cell lines; however, the lower efficiency of CK2 inhibition was detected in MCF-7 considering the extent of Akt1 phosphorylation. The relative level of the phosphorylation of the tested proteins in MDA-MB-231 cells was in the range of 0.32 to 0.80 for p-Ser529 p65 and 0.41 to 0.73 for p-Ser129 Akt1, whereas in MCF-7 cells it was in the range of 0.33 to 0.78 for p-Ser529 p65 and 0.82 to 1.23 for p-Ser129 Akt1, respectively. The lowest phosphorylation levels of the tested proteins were detected in MDA-MB-231 cells for compound 6b with the relative level of 0.41 for Ser129 Akt1 as well as for compound 6c with the relative level of 0.32 for p-Ser529 p65. Among the tested proteins, the lowest extent of phosphorylation in MCF-7 cells was detected for 6b with the relative level of 0.33 for p-Ser529 p65, and for 6a with the relative level of 0.82 for Ser129 Akt1.
The MCF-7 cells growing exponentially were seeded at 4.8 × 10^5 cells in 6-cm-diameter plates. Subsequently, compounds were added in a final concentration of 0.5% DMSO. […] The protein concentration was determined using Bradford assay. […]
For densitometry, immunoblots were quantified using the Fiji distribution of the ImageJ 1.52a software (National Institutes of Health, Bethesda, MD, USA, and the University of Wisconsin, Madison, WI, USA). […]

[8] = molecular target: PIM1 (Homo sapiens, UniProt P11309); test: Radiometric (P81 filter isotopic) kinase assay, PIM1; type: biochemical; details: for remaining activity at 5 µM / remaining activity at 10 µM: read-out: Residual Activity of the Enzyme PIM1; for Ki: calculated from IC50 by Cheng and Prusoff equation
Sequence of PIM1 (P11309 whole entry, species assumed): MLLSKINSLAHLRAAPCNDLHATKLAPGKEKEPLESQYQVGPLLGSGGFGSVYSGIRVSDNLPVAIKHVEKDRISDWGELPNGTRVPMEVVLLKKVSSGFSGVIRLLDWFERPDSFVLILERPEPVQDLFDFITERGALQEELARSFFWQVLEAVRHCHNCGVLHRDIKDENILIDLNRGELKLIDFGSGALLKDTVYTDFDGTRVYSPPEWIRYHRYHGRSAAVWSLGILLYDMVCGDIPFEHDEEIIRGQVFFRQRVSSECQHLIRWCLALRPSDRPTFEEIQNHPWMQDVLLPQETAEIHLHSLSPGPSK

[9] = molecular target: CK2 holoenzyme (CK2 α2β2) (Homo sapiens, UniProt P68400); test: Radiometric (P81 filter isotopic) kinase assay, CK2 holoenzyme; type: biochemical; details: read-out: Residual Activity of the Enzyme CK2 α2β2
Sequence of CK2 holoenzyme (CK2 α2β2) (P68400 whole entry): as the sequence (P68400 whole entry) above
Sequence of CK2 holoenzyme (CK2 α2β2) (P67870 whole entry partner): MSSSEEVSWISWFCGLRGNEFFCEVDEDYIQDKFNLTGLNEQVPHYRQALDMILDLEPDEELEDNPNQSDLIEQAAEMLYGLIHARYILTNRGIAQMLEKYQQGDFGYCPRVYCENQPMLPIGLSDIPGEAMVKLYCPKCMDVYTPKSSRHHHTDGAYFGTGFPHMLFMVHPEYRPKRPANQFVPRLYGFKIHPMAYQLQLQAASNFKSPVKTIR

[10] = tested on: MCF-7 cells; test: Annexin V-FITC/PI flow cytometry, MCF-7; type: cell-based, human; details: MCF-7, 72 h treatment, compound at its EC50
Experimental: Additionally, assaying annexin V-binding to phosphatidylserine by means of flow cytometry confirmed that derivatives 3c and 6a–c induced apoptosis in both cell lines (Figure 9, Figure S3).
MCF-7 cells were seeded in six-well plates at 1.5 × 10^5 cells/well. […] Then, the plates were incubated for 24 h or 72 h. After exposure to the examined compounds, the floating cells were collected, and monolayer cell culture was trypsinized. The cells were centrifugated at 200× g at 4 °C for 5 min, washed twice in cold phosphate-buffered saline (PBS), and subsequently suspended in binding buffer at 1 × 10^6 cells/mL. Subsequently, 100-μL aliquots of the cell suspension were labeled according to the kit manufacturer’s instructions. Briefly, annexin V-fluorescein isothiocyanate and propidium iodide (BD Biosciences, Pharmingen, San Diego, CA, USA) were added to the cell suspension, and the mixture was vortexed and then incubated for 15 min at RT in the dark. A cold binding buffer (900 μL) was then added and the cells were vortexed again and kept on ice. Flow cytometric measurements were performed within 1 h after labeling. Viable, necrotic, early, and late apoptotic cells were detected by flow cytometry using CyFlow Cube 8 (Sysmex, Norderstedt, Germany) flow cytometer.

[11] = tested on: protein kinase CK2 in MCF-7 cells; test: Intracellular inhibition of CK2, Western blot of p-Ser529 p65 and p-Ser129 Akt1, MCF-7; type: cell-based, human
From the text: as §4
Considering an inefficient inhibition of CK2 in MCF-7, we evaluated an inhibition of CK2 in this cell line after 72 h. […] The relative levels were in the range of 0.17 to 0.8 for p-Ser529 p65 and 0.19 to 0.79 for p-Ser129 Akt1.
The MCF-7 cells growing exponentially were seeded at 4.8 × 10^5 cells in 6-cm-diameter plates. Subsequently, compounds were added in a final concentration of 0.5% DMSO. After incubation, floating cells were collected and cell monolayer was washed three times in ice-cold PBS and the cells were scraped, combined with floating cells and lysed in RIPA buffer consisting of 50 mM Tris-HCl (pH 7.4), 1% NP-40, 0.5% sodium deoxycholate, 0.1% SDS, 150 mM NaCl, 2 mM EDTA, 50 mM NaF, 0.2 mM sodium orthovanadate, and protease inhibitors cocktail. Subsequently, cells were sonicated (three times for 15 s), centrifuged at 20,000× g for 15 min at 4 °C, and the supernatants were collected and stored at −80 °C. The protein concentration was determined using Bradford assay. Then, supernatants were incubated with the Laemmli buffer for 5 min at 98 °C. Equal amounts of total protein (10 to 20 μg) were analyzed by SDS-PAGE, and subsequently, Western blotting was performed using primary antibodies in blocking buffer containing either 3% BSA (bovine serum albumin) or 3% milk in TBS-T (Tris-buffered saline (10 mM Tris-HCl (pH 8), 150 mM NaCl) containing 0.1% Tween 20 or 0.2% Triton X-100) for 1 h. After overnight incubation at 4 °C with the primary antibodies, the membranes were washed with TBS-T and probed with the respective secondary antibodies. The ECL substrate was used for detection and immunoblots were scanned using G Box Chemi (Syngene, Cambridge, UK) with GeneSys software (Syngene, Cambridge, UK) or were developed with the use of X-rays films. UV-irradiated Jurkat cells were used as a positive control in Western blot analysis of c-PARP1. After 2 h, one-minute UV-irradiated Jurkat leukemic T-cell line was lysed and subjected to analysis.
For densitometry, immunoblots were quantified using the Fiji distribution of the ImageJ 1.52a software (National Institutes of Health, Bethesda, MD, USA, and the University of Wisconsin, Madison, WI, USA). Phosphorylated protein densities were normalized to GAPDH densities, assuming 1 for untreated cells and then they were converted to a percent of the appropriate control.

[12] = MCF-7, 72 h treatment, compound at its EC50, relative to untreated control

CC(=O)OCC(CCn1cnc2cnc(N)nc21)COC(C)=O [famciclovir]
bioavailability relative to parent penciclovir [1]: 15 fold

CCCCCCCC(=O)OCCCn1c(C)nc2c(Br)c(Br)c(Br)c(Br)c21 [Compound 6c, 3-(4,5,6,7-Tetrabromo-2-methyl-1H-benzimidazol-1-yl)propyl octanoate]
remaining activity at 5 µM ([2]; 5 µM compound): 89.9 ± 5.2%
remaining activity at 10 µM ([2]; 10 µM compound): 84.3 ± 10.4%
cells in G1 [3]: 58.9%
cells in G2M [3]: 13.4%
cells in S [3]: 27.7%
EC50 ([4]; 24 h): 61.3 ± 2.23 µM
EC50 ([4]; 48 h): 29.8 ± 9.85 µM
EC50 ([4]; 72 h): 21.3 ± 2.24 µM
relative level of c-PARP1 [5]: 7.14
EC50 ([6]; MCF7, 24 h): 25.6 ± 12.3 µM
EC50 ([6]; MCF7, 48 h): 20.5 ± 2.92 µM
EC50 ([6]; MCF7, 72 h): 14.8 ± 2.14 µM
relative level of p-Ser529 p65 [7]: 0.32
melting point: 61 to 65 °C
remaining activity at 5 µM ([8]; 5 µM compound): 95.2 ± 9.4%
remaining activity at 10 µM ([8]; 10 µM compound): 79.8 ± 8.6%
remaining activity at 5 µM ([9]; 5 µM compound): 90.2 ± 4.7%
remaining activity at 10 µM ([9]; 10 µM compound): 80.8 ± 1.9%

Brc1c(Br)c(Br)c2[nH]cnc2c1Br [Compound 1, 4,5,6,7-tetrabromo-1H-benzimidazole, reference compound]
remaining activity at 5 µM [2]: 19.3 ± 0.2%
remaining activity at 10 µM [2]: 12.4 ± 0.1%
cells in G1 [3]: 57.7%
cells in G2M [3]: 17.2%
cells in S [3]: 25.1%
EC50 ([4]; 24 h): 51.9 ± 14.4 µM
EC50 ([4]; 48 h): 25.1 ± 2.04 µM
EC50 ([4]; 72 h): 24.9 ± 0.25 µM
EC50 ([6]; MCF7, 24 h): 20.8 ± 1.49 µM
EC50 ([6]; MCF7, 48 h): 18.8 ± 1.6 µM
EC50 ([6]; MCF7, 72 h): 16.9 ± 1.36 µM
necrotic cells (of total cells) [10]: 25%
Ki [8]: 0.27 µM
remaining activity at 5 µM [8]: 11.2 ± 0.2%
remaining activity at 10 µM [8]: 5.7 ± 0.5%
remaining activity at 5 µM [9]: 9.6 ± 2.6%
remaining activity at 10 µM [9]: 5 ± 1.2%

CCCC(=O)OCCCn1c(C)nc2c(Br)c(Br)c(Br)c(Br)c21 [Compound 6a, 3-(4,5,6,7-Tetrabromo-2-methyl-1H-benzimidazol-1-yl)propyl butanoate]
remaining activity at 5 µM ([2]; 5 µM compound): 81.5 ± 8%
remaining activity at 10 µM ([2]; 10 µM compound): 68.4 ± 9.8%
cells in G1 [3]: 56.3%
cells in G2M [3]: 18.5%
cells in S [3]: 25.2%
EC50 ([4]; 24 h): 52.2 ± 11.7 µM
EC50 ([4]; 48 h): 20.5 ± 1.97 µM
EC50 ([4]; 72 h): 16.9 ± 4.07 µM
EC50 ([6]; MCF7, 24 h): 20.2 ± 1.74 µM
EC50 ([6]; MCF7, 48 h): 18.1 ± 0.52 µM
EC50 ([6]; MCF7, 72 h): 16.5 ± 1.13 µM
melting point: 81 to 82 °C
relative level of p-Ser129 Akt1 ([11]; MCF-7, 24 h treatment, compound at its 72-h EC50, relative to untreated control): 0.82
relative level of p-Ser129 Akt1 [11, 12]: 0.30
relative level of p-Ser529 p65 [11, 12]: 0.19
remaining activity at 5 µM ([8]; 5 µM compound): 38.8 ± 3.1%
remaining activity at 10 µM ([8]; 10 µM compound): 19 ± 0.1%
Ki [8]: 1.94 ± 0.16 µM
remaining activity at 5 µM ([9]; 5 µM compound): 75.6 ± 5.9%
remaining activity at 10 µM ([9]; 10 µM compound): 49.6 ± 0.8%
